From PubChem BioAssay AID1996
≈ marks a conversion by molar mass, not a printed value.

details: buffer; pH 7.4; 200.0 µM

Question: With O=C1Nc2ccccc2N=C(c2ccccc2)c2ccccc21 as the compound, how does the solubility kinetic read?
Answer: The solubility kinetic was 0.9 µg/mL (≈ 3.02 µM).

Question: With NC(=O)NC(=O)COC(=O)c1ccc(OC(F)F)cc1 as the compound, how does the solubility kinetic read?
Answer: The solubility kinetic was 9.9 µg/mL (≈ 34.4 µM).

Question: For O=C(CNC(=O)c1ccco1)N/N=C/c1ccc(C(=O)O)cc1, which solubility kinetic is on record?
Answer: The solubility kinetic was > 47.3 µg/mL.

Question: Which solubility kinetic does the source give for Cc1ccc(CNC(=O)c2cc(=O)c3ccccc3o2)cc1 here?
Answer: Its solubility kinetic is 3 µg/mL (≈ 10.2 µM).

Question: With COc1ccc(CNC2CCCc3ccccc32)c(OC)c1 (stereo not drawn) as the compound, how does the solubility kinetic read?
Answer: Its solubility kinetic is 31.4 µg/mL (≈ 106 µM).

Question: With Cc1cc(=O)[nH]c2ccc(S(=O)(=O)Nc3ccccc3)cc12 as the compound, how does the solubility kinetic read?
Answer: Its solubility kinetic is 3.4 µg/mL (≈ 10.8 µM).

Question: Which solubility kinetic does the source give for O=C(Nc1cccnc1Cl)c1cccc(F)c1 here?
Answer: The solubility kinetic was 36.1 µg/mL (≈ 144 µM).

Question: Which solubility kinetic does the source give for Fc1ccc(NC(=S)Nc2cccc3ccccc23)cc1F here?
Answer: The solubility kinetic was 29.3 µg/mL (≈ 93.2 µM).

Question: With Cc1ccc(NC(=O)C2CCCN(C(=O)Nc3ccc(F)cc3)C2)cc1 (stereo not drawn) as the compound, how does the solubility kinetic read?
Answer: The solubility kinetic was 13.4 µg/mL (≈ 37.7 µM).

Question: For CN(C(=O)COC(=O)c1ccc(C#N)cc1)c1ccccc1, which solubility kinetic is on record?
Answer: The solubility kinetic was 19.4 µg/mL (≈ 65.9 µM).

Question: Which solubility kinetic does the source give for Cc1ccc(N2C(=O)NC(=O)/C(=C\C=C\c3ccco3)C2=O)cc1 here?
Answer: The solubility kinetic was 8.8 µg/mL (≈ 27.3 µM).

Question: For CC(C)(CO)Nc1ncnc2onc(-c3ccc(F)cc3)c12, which solubility kinetic is on record?
Answer: The solubility kinetic was > 45.3 µg/mL.

Question: For C=CCC1Cc2c(cccc2[N+](=O)[O-])C(CC=C)N1 (stereo not drawn), which solubility kinetic is on record?
Answer: The solubility kinetic was 30.5 µg/mL (≈ 118 µM).

Question: Which solubility kinetic does the source give for O=C(COC(=O)c1cc(=O)[nH]c2ccccc12)NC1CCCCC1 here?
Answer: Its solubility kinetic is 4.7 µg/mL (≈ 14.3 µM).

Question: For Cc1ccc(NC(=O)CN2C(=O)S/C(=C/c3ccncc3)C2=O)cc1, which solubility kinetic is on record?
Answer: Its solubility kinetic is 2.2 µg/mL (≈ 6.23 µM).

Question: For O=C(NCCCn1ccnc1)c1ccc(C(F)(F)F)cc1, which solubility kinetic is on record?
Answer: The solubility kinetic was > 44.6 µg/mL.

Question: For COc1ccccc1NC(=O)CCN1C(=O)C2CC=CCC2C1=O (stereo not drawn), which solubility kinetic is on record?
Answer: Its solubility kinetic is > 49.3 µg/mL.

Question: Which solubility kinetic does the source give for C=CCSc1nc(N)c2c3c(sc2n1)CN(C)CC3 here?
Answer: The solubility kinetic was 43.5 µg/mL (≈ 149 µM).

Question: For Cc1ccc(-c2nc(C#N)c(N3CCC(C(N)=O)CC3)o2)cc1, which solubility kinetic is on record?
Answer: The solubility kinetic was 1.6 µg/mL (≈ 5.16 µM).

Question: Which solubility kinetic does the source give for O=C(c1cccc(O)c1)N1CCN(C(=O)C2CC2)CC1 here?
Answer: The solubility kinetic was > 41.1 µg/mL.

Question: Which solubility kinetic does the source give for Fc1cccc(NC(=S)Nc2cccc3ccccc23)c1 here?
Answer: Its solubility kinetic is 19.6 µg/mL (≈ 66.1 µM).

Question: For CC(C)(C)c1ccc(-c2noc(-c3ccno3)n2)cc1, which solubility kinetic is on record?
Answer: The solubility kinetic was < 0.2 µg/mL.

Question: With O=C(O)c1ccccc1Sc1ncnc2sccc12 as the compound, how does the solubility kinetic read?
Answer: Its solubility kinetic is > 43.3 µg/mL.

Question: For CC(=O)N1CCN(CC(=O)Nc2sccc2C#N)CC1, which solubility kinetic is on record?
Answer: The solubility kinetic was 39 µg/mL (≈ 133 µM).

Question: Which solubility kinetic does the source give for CCOP(=O)(c1ccc(N(C)C)cc1)C(O)c1ccc(C)cc1 (stereo not drawn) here?
Answer: The solubility kinetic was 46 µg/mL (≈ 138 µM).

Question: With Cc1cccc(C(=O)NCC(c2ccco2)N2CCc3ccccc32)c1 (stereo not drawn) as the compound, how does the solubility kinetic read?
Answer: Its solubility kinetic is 8.2 µg/mL (≈ 23.7 µM).

Question: Which solubility kinetic does the source give for Clc1cccc(C2Nc3cccc4cccc(c34)N2)c1 here?
Answer: The solubility kinetic was 5.3 µg/mL (≈ 18.9 µM).

Question: With O=C(Nc1cc(S(=O)(=O)N2CCOCC2)ccc1N1CCCCC1)c1ccccc1Br as the compound, how does the solubility kinetic read?
Answer: Its solubility kinetic is 6.1 µg/mL (≈ 12 µM).

Question: With Oc1ccc(Br)cc1CNc1cccc2cccnc12 as the compound, how does the solubility kinetic read?
Answer: The solubility kinetic was 1 µg/mL (≈ 3.04 µM).

Question: With Cc1cccc(C(=O)OCC(=O)NC(C)C2CC3CCC2C3)c1O (stereo not drawn) as the compound, how does the solubility kinetic read?
Answer: The solubility kinetic was 4.1 µg/mL (≈ 12.4 µM).

Question: For C[C@H](NC(=O)c1ccco1)C(=O)OCC(=O)N1CC(=O)Nc2ccccc21, which solubility kinetic is on record?
Answer: The solubility kinetic was > 55.7 µg/mL.

Question: For CC(=O)Nc1ccc(NC(=O)COc2ccc(Cl)cc2Cl)cc1, which solubility kinetic is on record?
Answer: The solubility kinetic was 1 µg/mL (≈ 2.83 µM).

Question: With O=C(COC(=O)CC1CCCC1)Nc1ccccc1[N+](=O)[O-] as the compound, how does the solubility kinetic read?
Answer: Its solubility kinetic is 12.1 µg/mL (≈ 39.5 µM).

Question: With O=C(NCCC1=CCCCC1)C(=O)NCCc1ccc(Cl)cc1 as the compound, how does the solubility kinetic read?
Answer: The solubility kinetic was < 0.4 µg/mL.

Question: With CCOC(=O)c1ccc(NC(=O)C2CC(O)CN2S(=O)(=O)c2ccc(C)cc2)cc1 (stereo not drawn) as the compound, how does the solubility kinetic read?
Answer: The solubility kinetic was > 64.9 µg/mL.

Question: With N#CCC(=O)Nc1ccc(C(=O)OCC(=O)NC(=O)Nc2ccc3c(c2)OCCO3)cc1 as the compound, how does the solubility kinetic read?
Answer: The solubility kinetic was 10.5 µg/mL (≈ 24 µM).

Question: For O=C(NCCN1CCOCC1)c1cc(-c2cccc(O)c2)on1, which solubility kinetic is on record?
Answer: The solubility kinetic was > 47.6 µg/mL.

Question: With Cn1nc(C(F)(F)F)c2cc(C(=O)N3CCOCC3)sc21 as the compound, how does the solubility kinetic read?
Answer: The solubility kinetic was > 47.9 µg/mL.

Question: With O=C(Nc1nc2c(s1)CN(Cc1ccccc1)CC2)C1CCC1 as the compound, how does the solubility kinetic read?
Answer: The solubility kinetic was 40 µg/mL (≈ 122 µM).

Question: Which solubility kinetic does the source give for Cn1c(=O)c2c(O)c(Cc3ccccc3)c(=O)n(C)c2n(C)c1=O here?
Answer: Its solubility kinetic is 36 µg/mL (≈ 110 µM).

Question: Which solubility kinetic does the source give for CN1CCN(NC(=S)NC(C)(C)CC(C)(C)C)CC1 here?
Answer: The solubility kinetic was > 43 µg/mL.

Question: Which solubility kinetic does the source give for N#C/C(=C\c1ccc2c(c1)OCO2)C(N)=S here?
Answer: The solubility kinetic was 5.8 µg/mL (≈ 25 µM).

Question: For O=C(Nc1ccc2c(c1)CCC2)Nc1ccc(F)cc1F, which solubility kinetic is on record?
Answer: The solubility kinetic was < 0.3 µg/mL.

Question: Which solubility kinetic does the source give for Cn1c(-c2ccncc2)nc2ccccc21 here?
Answer: Its solubility kinetic is > 31.4 µg/mL.

Question: Which solubility kinetic does the source give for Nc1ccccc1N=Cc1ccc(-c2cccc(Cl)c2)o1 here?
Answer: The solubility kinetic was < 0.3 µg/mL.

Question: With CS(=O)(=O)Nc1ccc2c(c1)ncn2CCc1ccccc1 as the compound, how does the solubility kinetic read?
Answer: The solubility kinetic was > 47.3 µg/mL.

Question: Which solubility kinetic does the source give for O=C(COC(=O)Cc1c(F)cccc1Cl)NC(=O)Nc1ccccc1F here?
Answer: The solubility kinetic was 1.9 µg/mL (≈ 4.96 µM).

Question: With Cc1ccnc(NC(=O)CCc2c[nH]c3ccccc23)c1 as the compound, how does the solubility kinetic read?
Answer: The solubility kinetic was > 41.9 µg/mL.

Question: Which solubility kinetic does the source give for CCOC(=O)c1ccc(S(=O)(=O)N2CCN(C(C)=O)CC2)cc1 here?
Answer: Its solubility kinetic is > 51.1 µg/mL.

Question: With COc1cc2nc(NC(=O)c3ccco3)sc(=O)c2cc1OC as the compound, how does the solubility kinetic read?
Answer: Its solubility kinetic is 1 µg/mL (≈ 3.01 µM).

Question: Which solubility kinetic does the source give for CCn1c(C)nc2cc(S(=O)(=O)Nc3ccc(C)cc3)ccc21 here?
Answer: The solubility kinetic was > 49.4 µg/mL.

Question: With NC(=O)c1cc(S(=O)(=O)N2CCOCC2)cs1 as the compound, how does the solubility kinetic read?
Answer: Its solubility kinetic is > 41.4 µg/mL.

Question: Which solubility kinetic does the source give for COc1ccc2oc(C(=O)NCC3CCCO3)c(C)c2c1 (stereo not drawn) here?
Answer: Its solubility kinetic is 39.8 µg/mL (≈ 138 µM).

Question: For CCCC(=O)Nc1cc(OC)c(C(=O)OC)cc1Cl, which solubility kinetic is on record?
Answer: Its solubility kinetic is > 42.9 µg/mL.

Question: For CC(=O)Oc1ccc(C(=O)Nc2cccc3c2CCCC3)cc1, which solubility kinetic is on record?
Answer: The solubility kinetic was 3.4 µg/mL (≈ 11 µM).

Question: Which solubility kinetic does the source give for CC(=O)Nc1ccc(NC(=O)CC(C)n2ccnc2)cc1 (stereo not drawn) here?
Answer: The solubility kinetic was 40.8 µg/mL (≈ 142 µM).

Question: With CCOC(=O)Cc1csc(NC(=O)CN2CCCCC2)n1 as the compound, how does the solubility kinetic read?
Answer: Its solubility kinetic is 41.6 µg/mL (≈ 134 µM).

Question: With COc1ccccc1C(=O)NCCC(=O)Nc1cccc(C)n1 as the compound, how does the solubility kinetic read?
Answer: The solubility kinetic was > 47 µg/mL.
